The source made the active and inactive calls. The calls are words filed in the database; no cut-off is given here.

For experiment [1], the target named is T1, Peregrin (Homo sapiens, UniProt P55201).
T1 sequence (P55201 whole entry): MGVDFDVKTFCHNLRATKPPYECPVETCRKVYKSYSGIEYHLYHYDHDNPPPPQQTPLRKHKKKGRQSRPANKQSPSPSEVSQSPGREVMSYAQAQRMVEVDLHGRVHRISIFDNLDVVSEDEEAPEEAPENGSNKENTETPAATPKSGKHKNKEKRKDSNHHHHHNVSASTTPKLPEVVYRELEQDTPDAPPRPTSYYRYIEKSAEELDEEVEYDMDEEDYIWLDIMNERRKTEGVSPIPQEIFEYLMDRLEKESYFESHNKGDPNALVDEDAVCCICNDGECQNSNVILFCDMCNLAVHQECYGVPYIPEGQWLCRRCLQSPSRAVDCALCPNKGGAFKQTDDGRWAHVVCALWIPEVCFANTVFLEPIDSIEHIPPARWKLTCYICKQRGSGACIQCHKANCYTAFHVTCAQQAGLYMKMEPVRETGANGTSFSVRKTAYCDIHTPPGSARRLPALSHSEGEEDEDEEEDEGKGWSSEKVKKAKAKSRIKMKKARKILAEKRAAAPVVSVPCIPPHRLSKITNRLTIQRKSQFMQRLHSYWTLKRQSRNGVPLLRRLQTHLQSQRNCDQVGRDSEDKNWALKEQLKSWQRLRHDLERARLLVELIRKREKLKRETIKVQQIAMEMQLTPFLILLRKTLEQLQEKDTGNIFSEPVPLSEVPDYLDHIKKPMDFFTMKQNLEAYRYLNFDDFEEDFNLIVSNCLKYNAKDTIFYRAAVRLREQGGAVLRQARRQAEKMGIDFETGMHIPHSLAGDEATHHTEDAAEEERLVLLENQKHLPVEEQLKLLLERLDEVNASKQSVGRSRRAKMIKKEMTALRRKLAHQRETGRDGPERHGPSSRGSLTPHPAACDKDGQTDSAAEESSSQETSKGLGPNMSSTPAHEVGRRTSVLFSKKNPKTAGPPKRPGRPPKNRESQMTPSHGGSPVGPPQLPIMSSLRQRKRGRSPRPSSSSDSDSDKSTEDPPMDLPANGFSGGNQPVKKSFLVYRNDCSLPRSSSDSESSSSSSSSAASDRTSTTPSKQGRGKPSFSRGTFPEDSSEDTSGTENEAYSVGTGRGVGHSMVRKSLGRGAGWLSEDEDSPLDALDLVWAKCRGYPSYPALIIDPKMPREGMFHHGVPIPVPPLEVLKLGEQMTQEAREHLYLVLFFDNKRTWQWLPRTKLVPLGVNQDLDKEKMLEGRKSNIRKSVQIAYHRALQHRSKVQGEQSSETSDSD
Description: Inhibition of BRPF1B (unknown origin) by Alpha Screen assay.

In experiment [2] the target is T1, Peregrin. Description: Binding affinity to BRPF1B (unknown origin) by isothermal titration calorimetry. On the technique in general: In ITC the heat of successive injections is recorded.
In experiment [3] the target is T2, Bromodomain and PHD finger-containing protein 3 (Homo sapiens, UniProt Q9ULD4).
T2 sequence (Q9ULD4 whole entry): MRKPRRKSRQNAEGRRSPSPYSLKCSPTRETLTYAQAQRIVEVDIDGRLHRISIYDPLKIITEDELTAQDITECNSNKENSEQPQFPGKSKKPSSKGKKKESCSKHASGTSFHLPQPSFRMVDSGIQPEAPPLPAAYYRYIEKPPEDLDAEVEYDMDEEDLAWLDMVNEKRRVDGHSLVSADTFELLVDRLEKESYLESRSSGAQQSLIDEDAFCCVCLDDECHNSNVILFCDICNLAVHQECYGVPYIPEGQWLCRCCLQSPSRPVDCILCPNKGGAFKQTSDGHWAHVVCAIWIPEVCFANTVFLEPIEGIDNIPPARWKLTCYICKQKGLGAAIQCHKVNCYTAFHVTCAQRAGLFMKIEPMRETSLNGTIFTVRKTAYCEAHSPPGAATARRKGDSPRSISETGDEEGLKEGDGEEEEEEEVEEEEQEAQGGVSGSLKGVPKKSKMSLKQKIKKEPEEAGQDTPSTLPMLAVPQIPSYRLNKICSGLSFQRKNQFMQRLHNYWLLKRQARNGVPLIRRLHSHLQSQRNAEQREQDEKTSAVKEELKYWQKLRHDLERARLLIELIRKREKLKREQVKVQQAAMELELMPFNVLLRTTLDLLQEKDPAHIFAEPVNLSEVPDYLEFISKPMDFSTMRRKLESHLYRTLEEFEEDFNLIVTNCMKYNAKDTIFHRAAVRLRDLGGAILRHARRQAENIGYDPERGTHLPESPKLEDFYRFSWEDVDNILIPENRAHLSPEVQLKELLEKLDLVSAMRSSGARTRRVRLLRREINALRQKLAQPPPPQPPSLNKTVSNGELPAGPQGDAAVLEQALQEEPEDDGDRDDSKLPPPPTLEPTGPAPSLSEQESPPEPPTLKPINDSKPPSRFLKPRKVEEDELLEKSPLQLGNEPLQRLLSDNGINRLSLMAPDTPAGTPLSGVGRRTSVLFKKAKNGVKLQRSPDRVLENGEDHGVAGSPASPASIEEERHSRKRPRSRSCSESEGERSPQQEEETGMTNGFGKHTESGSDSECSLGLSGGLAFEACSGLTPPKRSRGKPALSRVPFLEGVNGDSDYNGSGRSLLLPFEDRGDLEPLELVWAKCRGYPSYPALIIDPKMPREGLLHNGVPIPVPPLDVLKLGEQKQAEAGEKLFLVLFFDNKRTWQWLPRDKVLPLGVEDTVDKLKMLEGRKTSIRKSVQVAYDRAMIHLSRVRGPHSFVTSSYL
Kind of experiment: Inhibition of BRPF3 (unknown origin) by Alpha Screen assay.

For experiment [4], the system named is RCH-ACV. Kind of experiment: Cytotoxicity against human RCH-ACV cells at 5x10'-5 M to 8x10'-8 M after 72 hrs by CellTiter-Glo assay. The format is functional, cell-based. (In general: In ATP-based viability assays light output follows the ATP content of the culture.)

On to `COc1ccc(Oc2cc3c(cc2NS(=O)(=O)c2ccc(OC)c(OC)c2)n(C)c(=O)n3C)cc1`, for which the IC50 in experiment [1] is 340 nM; in experiment [3], 7 µM. The same molecule had a dissociation constant (Kd) in experiment [2] of 137 nM. Besides, the outcome in experiment [4] was inactive.

Broadly, the IC50 is the point on the concentration scale where inhibition reaches its midpoint. What is called Kd is the constant that tells how readily two partners part at equilibrium. Read a high Kd as weaker binding.

Source of the values: ChEMBL document CHEMBL3769336, “Discovery of a Chemical Tool Inhibitor Targeting the Bromodomains of TRIM24 and BRPF” (J Med Chem, 2016).
